Numbers after ± are expanded uncertainties.
Experiment: molar heat capacity at constant pressure
Conditions: 101.33 kPa, Liquid

Structure (SMILES)	molar heat capacity at constant pressure (284.15 K)	molar heat capacity at constant pressure (286.65 K)	molar heat capacity at constant pressure (289.15 K)	molar heat capacity at constant pressure (291.65 K)	molar heat capacity at constant pressure (294.15 K)	molar heat capacity at constant pressure (296.65 K)	molar heat capacity at constant pressure (299.15 K)	molar heat capacity at constant pressure (301.65 K)	molar heat capacity at constant pressure (304.15 K)	molar heat capacity at constant pressure (306.65 K)	molar heat capacity at constant pressure (309.15 K)	molar heat capacity at constant pressure (311.65 K)	molar heat capacity at constant pressure (314.15 K)	molar heat capacity at constant pressure (316.65 K)	molar heat capacity at constant pressure (319.15 K)	molar heat capacity at constant pressure (321.65 K)	molar heat capacity at constant pressure (324.15 K)	molar heat capacity at constant pressure (326.65 K)	molar heat capacity at constant pressure (329.15 K)	molar heat capacity at constant pressure (331.65 K)	other results
CCCCCCCCCCCl [1-chlorodecane]	328.57 ± 1.6 J/K/mol	329.82 ± 1.6 J/K/mol	331 ± 1.7 J/K/mol	332.01 ± 1.7 J/K/mol	333.14 ± 1.7 J/K/mol	334.13 ± 1.7 J/K/mol	335.39 ± 1.7 J/K/mol	336.61 ± 1.7 J/K/mol	337.47 ± 1.7 J/K/mol	338.66 ± 1.7 J/K/mol	339.83 ± 1.7 J/K/mol	341.39 ± 1.7 J/K/mol	342.42 ± 1.7 J/K/mol	343.41 ± 1.7 J/K/mol	345.04 ± 1.7 J/K/mol	346.36 ± 1.7 J/K/mol	346.99 ± 1.7 J/K/mol	348.75 ± 1.7 J/K/mol	350.01 ± 1.8 J/K/mol	351.31 ± 1.8 J/K/mol	molar heat capacity at constant pressure (334.15 K): 352.76 ± 1.8 J/K/mol; molar heat capacity at constant pressure (336.65 K): 353.39 ± 1.8 J/K/mol; molar heat capacity at constant pressure (339.15 K): 355.52 ± 1.8 J/K/mol; molar heat capacity at constant pressure (341.65 K): 356.17 ± 1.8 J/K/mol; molar heat capacity at constant pressure (344.15 K): 357.74 ± 1.8 J/K/mol; molar heat capacity at constant pressure (346.65 K): 358.38 ± 1.8 J/K/mol; molar heat capacity at constant pressure (349.15 K): 359.65 ± 1.8 J/K/mol; molar heat capacity at constant pressure (351.65 K): 361.49 ± 1.8 J/K/mol; molar heat capacity at constant pressure (353.15 K): 362.49 ± 1.8 J/K/mol
CCCCCCCCl [1-chloroheptane]	240.95 ± 1.2 J/K/mol	241.75 ± 1.2 J/K/mol	242.67 ± 1.2 J/K/mol	243.4 ± 1.2 J/K/mol	244.29 ± 1.2 J/K/mol	245.23 ± 1.2 J/K/mol	246.05 ± 1.2 J/K/mol	247.03 ± 1.2 J/K/mol	247.61 ± 1.2 J/K/mol	248.53 ± 1.2 J/K/mol	249.54 ± 1.2 J/K/mol	250.65 ± 1.2 J/K/mol	251.6 ± 1.3 J/K/mol	252.2 ± 1.3 J/K/mol	253.36 ± 1.3 J/K/mol	254.42 ± 1.3 J/K/mol	254.76 ± 1.3 J/K/mol	256.19 ± 1.3 J/K/mol	257.57 ± 1.3 J/K/mol	258.06 ± 1.3 J/K/mol	molar heat capacity at constant pressure (334.15 K): 258.84 ± 1.3 J/K/mol; molar heat capacity at constant pressure (336.65 K): 259.88 ± 1.3 J/K/mol; molar heat capacity at constant pressure (339.15 K): 261.01 ± 1.3 J/K/mol; molar heat capacity at constant pressure (341.65 K): 261.55 ± 1.3 J/K/mol; molar heat capacity at constant pressure (344.15 K): 262.9 ± 1.3 J/K/mol; molar heat capacity at constant pressure (346.65 K): 263.26 ± 1.3 J/K/mol; molar heat capacity at constant pressure (349.15 K): 264.3 ± 1.3 J/K/mol; molar heat capacity at constant pressure (351.65 K): 266.04 ± 1.3 J/K/mol; molar heat capacity at constant pressure (353.15 K): 266.51 ± 1.3 J/K/mol
CCCCCCCl [1-chlorohexane]	212.36 ± 1.1 J/K/mol	213.23 ± 1.1 J/K/mol	213.91 ± 1.1 J/K/mol	214.63 ± 1.1 J/K/mol	215.4 ± 1.1 J/K/mol	216.12 ± 1.1 J/K/mol	216.95 ± 1.1 J/K/mol	217.75 ± 1.1 J/K/mol	218.44 ± 1.1 J/K/mol	219.22 ± 1.1 J/K/mol	219.99 ± 1.1 J/K/mol	221 ± 1.1 J/K/mol	221.78 ± 1.1 J/K/mol	222.49 ± 1.1 J/K/mol	223.43 ± 1.1 J/K/mol	224.31 ± 1.1 J/K/mol	224.7 ± 1.1 J/K/mol	226.02 ± 1.1 J/K/mol	227.13 ± 1.1 J/K/mol	228.86 ± 1.1 J/K/mol	molar heat capacity at constant pressure (334.15 K): 228.99 ± 1.1 J/K/mol; molar heat capacity at constant pressure (336.65 K): 229.44 ± 1.1 J/K/mol; molar heat capacity at constant pressure (339.15 K): 230.06 ± 1.1 J/K/mol; molar heat capacity at constant pressure (341.65 K): 231.22 ± 1.2 J/K/mol; molar heat capacity at constant pressure (344.15 K): 231.83 ± 1.2 J/K/mol; molar heat capacity at constant pressure (346.65 K): 232.32 ± 1.2 J/K/mol; molar heat capacity at constant pressure (349.15 K): 233.18 ± 1.2 J/K/mol; molar heat capacity at constant pressure (351.65 K): 234.56 ± 1.2 J/K/mol; molar heat capacity at constant pressure (353.15 K): 235.17 ± 1.2 J/K/mol
